Molecular target: T1, hDGAT1 (Homo sapiens, UniProt O75907)
T1 construct: made in house; host or cells: Sf9 insect cells (baculovirus); microsomal fraction
T1 sequence (O75907 1-488): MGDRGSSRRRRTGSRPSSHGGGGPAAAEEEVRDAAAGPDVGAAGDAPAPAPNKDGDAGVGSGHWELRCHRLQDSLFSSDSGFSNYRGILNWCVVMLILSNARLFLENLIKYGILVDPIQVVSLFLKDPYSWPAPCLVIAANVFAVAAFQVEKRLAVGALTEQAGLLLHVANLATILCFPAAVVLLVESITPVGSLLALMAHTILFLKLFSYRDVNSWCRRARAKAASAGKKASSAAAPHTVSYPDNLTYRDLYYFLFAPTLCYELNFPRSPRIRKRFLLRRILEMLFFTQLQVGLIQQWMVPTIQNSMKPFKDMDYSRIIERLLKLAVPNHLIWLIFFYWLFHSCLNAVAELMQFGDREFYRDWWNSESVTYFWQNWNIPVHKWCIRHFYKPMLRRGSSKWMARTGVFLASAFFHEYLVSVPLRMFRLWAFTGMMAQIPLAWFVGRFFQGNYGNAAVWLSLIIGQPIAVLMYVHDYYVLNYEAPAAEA
Assay: In-vitro DGAT1 assay with hDGAT1 microsomes from Sf9 cells (14C oleoyl CoA, scintillation counting)
Assay type: biochemical
Conditions: for inhibition at 1 µM: read-out: Percentage inhibition of hDGAT1
Description: Sf9 cells were grown in T25 flasks containing Graces's Insect media with 10% FBS with antibiotic (100 units/mL penicillin, 100 μg/mL streptomycin sulphate, 0.25 μg/mL Amptotericin B as Fungizone) grown in a 27° C. incubator.
hDGAT10RF expression clone (RZPDo839C09146 in pDEST vector) was obtained from RZPD, German Science Center for Genomes research, Germany. hDGAT1 bacmid DNA was obtained by transformation of the hDGAT1 expression clone into DH10Bac E. coli competent cells. Approximately 1 μg of hDGAT1 bacmid DNA was infected into Sf9 cells with Cellfectin (Invitrogen) reagent. Following infection, Sf9 cells were incubated at 27° C. for 30 min. Five hours after infection, the media was replaced with growth media containing antibiotics (100 units/mL penicillin, 100 μg/mL streptomycin sulphate, 0.25 μg/mL Amptotericin B as Fungizone) and incubated at 27° C. for 72 h. The supernatant containing the virus was centrifuged at 1500×g for 5 min, passed through 0.22 μm filter, and subsequently stored at 4° C. The virus was further amplified three more times by re-infection of Sf9 cells and the viral titer was determined by plaque assay.
Sf9 cells were seeded in spinner flasks on day 0 at a cell density of 1×10^6 and infected on day 1 with hDGAT1 baculovirus at a multiplicity of infection (MOI) of 5 and a cell density of 2×10^6. On day 3 (or 66-72 h), cells were harvested and centrifuged at 2500×g for 10 min. Pellet was resuspended in lysis buffer (100 mM sucrose, 50 mM KCl, 40 mM KH2PO4, 30 mM EDTA, pH 7.2) and passed through 21-gauge needle approximately 10 times. The mixture was centrifuged at 12,000 rpm in a Sigma 12158-H rotor at 4° C. for 30 min. The supernatant was subjected to centrifugation at 35,000 rpm in a Beckman Ti-45 rotor at 4° C. for 1 h. The resultant pellet containing the microsomes wasere resuspended overnight in 1 mL of lysis buffer and total protein concentration was estimated using Bradford Reagent. Microsomes were aliquoted and stored at −80° C.
Frozen aliquots of hDGAT1 containing microsomes were thawed (5-10 mg/mL total protein) on ice and diluted to a working stock of 1 mg/mL with DGAT Assay Buffer (DAB). The DGAT reaction assay was performed by following the procedure described in U.S. Pat. No. 6,607,893 with some modifications that are described below.
1 mL stock solution of DGAT1 substrate mixture contains 5.6 μL of ^14C oleoyl CoA (16.8 nCi) and […] of 1,2-dioleoyl-sn-glycerol (1228.5 μM) 1,2-dioleoyl-sn-glycerol stock (19.5 mM) was prepared by dissolving 25 mg of 1,2-dioleoyl-sn-glycerol (Sigma, US) in 2060 μL of acetone.
The assay was performed in duplicates in a reaction volume of 100 μL.
The reaction was started by the addition of 2.5 μL of 1 mg/mL of microsomes (iv) to the mixture of (i), (ii) and (iii), and incubated at 37° C. for 10 min. The reaction was stopped by the addition of 300 μL of Alkaline Ethanol Stop Solution Mix [AESSM; 12.5% of 100% non-denatured ethanol, 10% deionized water, 2.5% 1N NaOH, 75% stop solution (78.4% isopropanol, 19.6% n-heptane, 2% deionized water)] followed by addition of 600 μL of n-heptane. The mixture was vortexed and the triglycerides formed were extracted into the organic heptane phase. 250 μL of the heptane phase was added into 4 mL scintillation cocktail (66.72% toluene, 33.3% TritonX-100, 0.5% PPO, 0.02% POPOP) and counted on a liquid scintillation counter for 1 min. Data was collected and plotted as a function of concentration in nM versus percentage inhibition of hDGAT1 by the compounds of present invention.

inhibition at 1 µM [%] | Percentage inhibition of hDGAT1 (at 1 μM) | SMILES
> 50 | – | Cc1ccc(Cl)c(NC(=O)Nc2ccc(-c3cnc(C4CCC(C(=O)O)CC4)s3)cc2)c1 (stereo not shown) [Example 150, 4-(5-(4-(3-(2-Chloro-5-methylphenyl)ureido)phenyl)thiazol-2-yl)cyclohexane carboxylic acid]
> 50 | – | O=C(Nc1ccc(-c2cnc(C3CCC(C(=O)O)CC3)s2)cc1)Nc1cccc(Cl)c1F (stereo not shown) [Example 152, 4-(5-(4-(3-(3-Chloro-2-fluorophenyl)ureido)phenyl)thiazol-2-yl)cyclohexane carboxylic acid]
> 50 | – | COc1ccc(NC(=O)Nc2ccc(-c3cnc(C4CCC(C(=O)O)CC4)s3)cc2)c(C)c1 (stereo not shown) [Example 154, 4-(5-(4-(3-(4-Methoxy-2-methylphenyl)ureido)phenyl)thiazol-2-yl)cyclo hexanecarboxylic acid]
> 50 | – | O=C(Nc1ccc(-c2cnc(C3CCC(C(=O)O)CC3)s2)cc1)Nc1ccc2c(c1)OCO2 (stereo not shown) [Example 156, 4-(5-(4-(3-Benzo[d][1,3]-dioxol-5-ylureido)phenyl)thiazol-2-yl)cyclohexane carboxylic acid]
> 50 | – | O=C(Nc1ccc(-c2cnc(C3CCC(C(=O)O)CC3)s2)cc1)Nc1c(Cl)cccc1C(F)(F)F (stereo not shown) [Example 158, 4-(5-(4-(3-(2-Chloro-6-(trifluoromethyl)phenyl)ureido)phenyl)thiazol-2-yl)cyclohexanecarboxylic acid]
> 50 | – | O=C(Nc1ccc(-c2cnc(C3CCC(C(=O)O)CC3)s2)cc1)Nc1ccc(Cl)cc1C(F)(F)F (stereo not shown) [Example 160, 4-(5-(4-(3-(4-Chloro-2-(trifluoromethyl)phenyl)ureido)phenyl)thiazol-2-yl)cyclohexanecarboxylic acid]
> 50 | – | Cc1cccc(Cl)c1NC(=O)Nc1ccc(-c2cnc(C3CCC(C(=O)O)CC3)s2)cc1 (stereo not shown) [Example 162, 4-(5-(4-(3-(2-Chloro-6-methylphenyl)ureido)phenyl)thiazol-2-yl)cyclohexane carboxylic acid]
– | ++ (>50 % Inhibition) | Cc1ccc(Cl)cc1NC(=O)Nc1ccc(-c2cnc(C3CCC(C(=O)O)CC3)s2)cc1 (stereo not shown) [Example 164]
> 50 | – | O=C(Nc1ccc(-c2cnc(C3CCC(C(=O)O)CC3)s2)cc1)Nc1ccccc1C(F)(F)F (stereo not shown) [Example 166, 4-(5-(4-(3-(2-(Trifluoromethyl)phenyl)ureido)phenyl)thiazol-2-yl)cyclohexane carboxylic acid]
> 50 | – | O=C(Nc1ccc(-c2cnc(C3CCC(C(=O)O)CC3)s2)cc1)Nc1ccccc1OC(F)(F)F (stereo not shown) [Example 168, 4-(5-(4-(3-(2-(Trifluoromethoxy)phenyl)ureido)phenyl)thiazol-2-yl)cyclo hexanecarboxylic acid]
> 50 | – | O=C(Nc1ccc(Oc2ccccc2)cc1)Nc1ccc(-c2cnc(C3CCC(C(=O)O)CC3)s2)cc1 (stereo not shown) [Example 170, 4-(5-(4-(3-(4-Phenoxyphenyl)ureido)phenyl)thiazol-2-yl)cyclohexane carboxylic acid]
> 50 | – | O=C(Nc1ccc(-c2cnc(C3CCC(C(=O)O)CC3)s2)cc1)Nc1ccc(Cl)cc1F (stereo not shown) [Example 172, 4-(5-(4-(3-(4-Chloro-2-fluorophenyl)ureido)phenyl)thiazol-2-yl)cyclohexane carboxylic acid]
> 50 | – | Cc1ccc(F)c(NC(=O)Nc2ccc(-c3cnc(C4CCC(C(=O)O)CC4)s3)cc2)c1 (stereo not shown) [Example 174, 4-(5-(4-(3-(2-Fluoro-5-methylphenyl)ureido)phenyl)thiazol-2-yl)cyclohexane carboxylic acid]
20 to 50 | – | O=C(Nc1ccc(-c2cnc(C3CCC(C(=O)O)CC3)s2)cc1)Nc1c(F)cccc1C(F)(F)F (stereo not shown) [Example 176, 4-(5-(4-(3-(2-Fluoro-6-(trifluoromethyl)phenyl)ureido)phenyl)thiazol-2-yl)cyclohexanecarboxylic acid]
> 50 | – | O=C(Nc1ccc(-c2cnc(C3CCC(C(=O)O)CC3)s2)cc1)Nc1cccc(F)c1 (stereo not shown) [Example 178, 4-(5-(4-(3-(3-Fluorophenyl)ureido)phenyl)thiazol-2-yl)cyclohexanecarboxylic acid]
> 50 | – | O=C(Nc1ccc(-c2cnc(C3CCC(C(=O)O)CC3)s2)cc1)Nc1ccc(F)c(F)c1 (stereo not shown) [Example 180, 4-(5-(4-(3-(3,4-Difluorophenyl)ureido)phenyl)thiazol-2-yl)cyclohexane carboxylic acid]
> 50 | – | O=C(Nc1ccc(-c2cnc(C3CCC(C(=O)O)CC3)s2)cc1)Nc1cc(F)cc(F)c1 (stereo not shown) [Example 182, 4-(5-(4-(3-(3,5-Difluorophenyl)ureido)phenyl)thiazol-2-yl)cyclohexane carboxylic acid]
> 50 | – | O=C(Nc1ccc(-c2cnc(C3CCC(C(=O)O)CC3)s2)cc1)Nc1c(F)cccc1F (stereo not shown) [Example 184, 4-(5-(4-(3-(2,6-Difluorophenyl)ureido)phenyl)thiazol-2-yl)cyclohexane carboxylic acid]
> 50 | – | O=C(Nc1ccc(-c2cnc(C3CCC(C(=O)O)CC3)s2)cc1)Nc1ccc(F)c(F)c1F (stereo not shown) [Example 186, 4-(5-(4-(3-(2,3,4-Trifluorophenyl)ureido)phenyl)thiazol-2-yl)cyclohexane carboxylic acid]
> 50 | – | O=C(Nc1ccc(-c2cnc(C3CCC(C(=O)O)CC3)s2)cc1)Nc1ccccc1Cl (stereo not shown) [Example 188, 4-(5-(4-(3-(2-Chlorophenyl)ureido)phenyl)thiazol-2-yl)cyclohexane carboxylic acid]
> 50 | – | O=C(Nc1ccc(-c2cnc(C3CCC(C(=O)O)CC3)s2)cc1)Nc1ccc(Cl)cc1Oc1ccccc1 (stereo not shown) [Example 190, 4-(5-(4-(3-(4-Chloro-2-phenoxyphenyl)ureido)phenyl)thiazol-2-yl)cyclohexane carboxylic acid]
> 50 | – | O=C(Nc1ccccc1)Nc1ccc(-c2cnc(C3CCC(C(=O)O)CC3)s2)cc1 (stereo not shown) [Example 192, 4-(5-(4-(3-Phenylureido)phenyl)thiazol-2-yl)cyclohexanecarboxylic acid]
> 50 | – | CC(C)(C)c1ccc(C(=O)Nc2ccc(-c3cnc(C4CCC(C(=O)O)CC4)s3)cc2)cc1 (stereo not shown) [Example 194, 4-(5-(4-(4-t-Butylbenzamido)phenyl)thiazol-2-yl)cyclohexanecarboxylic acid]
20 to 50 | – | O=C(Nc1ccc(-c2cnc(C3CCC(C(=O)O)CC3)s2)cc1)c1ccccc1Cl (stereo not shown) [Example 196, 4-(5-(4-(2-Chlorobenzamido)phenyl)thiazol-2-yl)cyclohexanecarboxylic acid]
> 50 | – | O=C(Nc1ccc(-c2cnc(C3CCC(C(=O)O)CC3)s2)cc1)c1ncc(-c2ccccc2)o1 (stereo not shown) [Example 198, 4-(5-(4-(5-Phenyloxazole-2-carboxamido)phenyl)thiazol-2-yl)cyclohexane carboxylic acid]

Reference: patent US20130158075A1, “HETEROCYCLIC COMPOUNDS AS DGAT1 INHIBITORS” (PIRAMAL ENTERPRISES LIMITED, priority 2010, published 2013)
